Test results from patent US20050101611A1, “Oral formulation comprising an inhibitor compound of the ileal bile transport and an hmg co-a reductase inhibitor” (priority 2000, published 2005).

Molecular target: T1, ileal bile acid transport system (IBAT) (Homo sapiens, UniProt Q12908)
T1 sequence (Q12908 1-348): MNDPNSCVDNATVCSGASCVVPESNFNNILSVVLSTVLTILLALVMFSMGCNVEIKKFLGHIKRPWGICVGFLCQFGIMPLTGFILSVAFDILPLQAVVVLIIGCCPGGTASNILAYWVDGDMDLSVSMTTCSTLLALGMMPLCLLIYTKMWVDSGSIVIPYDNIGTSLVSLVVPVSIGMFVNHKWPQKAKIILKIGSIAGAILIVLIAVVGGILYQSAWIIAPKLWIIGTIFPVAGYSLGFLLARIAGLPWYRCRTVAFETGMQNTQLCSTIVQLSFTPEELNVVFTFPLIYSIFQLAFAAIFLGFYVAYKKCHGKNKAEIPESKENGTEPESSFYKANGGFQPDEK
Assay: inhibition of IBAT
Details: statement in background text; no method or data given

inhibition of IBAT: no activity
Structure (SMILES): COc1ccc([C@@H]2Sc3ccccc3N(CCN(C)C)C(=O)[C@@H]2OC(C)=O)cc1 [diltiazem]
